Assays:
caspase-3 = molecular target: T1, caspase-3 (Homo sapiens, UniProt P42574); assay: AMC-M808 cleavage in DLD1 colon carcinoma cells after TRAIL treatment, time-lapse confocal fluorescence; type: cell-based
T1 construct: In DLD1 colon carcinoma cells in vitro; endogenous in cells; host or cells: DLD1 colon carcinoma cells
T1 sequence (P42574 29-175 limits assumed): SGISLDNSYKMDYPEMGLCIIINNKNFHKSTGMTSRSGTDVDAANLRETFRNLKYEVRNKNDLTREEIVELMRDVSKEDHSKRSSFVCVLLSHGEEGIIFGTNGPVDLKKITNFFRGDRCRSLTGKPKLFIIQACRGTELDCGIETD
T1 sequence (P42574 176-277 limits assumed): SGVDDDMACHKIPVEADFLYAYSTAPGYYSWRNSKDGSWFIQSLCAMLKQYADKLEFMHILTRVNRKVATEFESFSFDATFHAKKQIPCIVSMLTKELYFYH
Method: FIG. 1 is an image of AMC fluorescence from an imaging agent in DLD1 colon carcinoma cells before (A) and after 2 hour treatment with TNF-related apoptosis-inducing ligand (TRAIL) (B).
DLD1 cells were seeded in an 8-chamber glass slide at a density of 2×10^4 cells/cm^2 in DMEM containing 10% FBS and allowed to attach overnight. Fluorescent images of the plated cells were acquired using an Olympus FV1000 confocal microscope equipped with an onstage incubation chamber. TRAIL was added to the cells in a 0.5 mL volume of fresh medium at a concentration of 50 ng/mL. Time-lapse microscopy was then immediately initiated with confocal images acquired at a rate of one image every 10 minutes. The cells were maintained at 37° C. in 5% CO2 for the duration of the experiment. An excitation wavelength of 405 nm and an emission wavelength range of 425 to 475 nm were used to detect the cleaved product of AMC-M808. Fluorescence intensity over time was measured in a representative region-of-interest in each 10-minute image acquired to determine the rate of caspase activity.

caspases = conditions: cell cultures containing 23% apoptotic cells; cited from earlier work

Compound	cleavage by caspase-3 after induction of apoptosis (caspase-3; DLD1 cells treated with TRAIL)	rate of increase in fluorescence intensity due to AMC-M808 cleavage (caspase-3; DLD1 cells, after TRAIL 50 ng/mL, first hour, region of interest in 10 minute frames)	cell permeability (caspase-3; DLD1 colon carcinoma cells in vitro)	uptake in cell cultures (caspases)
COc1ccccc1CC(=O)NC(C(=O)NC(CC(=O)OCc1ccccc1)C(=O)Nc1ccc2c(C)cc(=O)oc2c1)C(C)C (stereo not shown) [Compound 3]	cleaved by caspase-3	5.5 min⁻¹	cell permeable	
radioiodinated Z-Val-Ala-DL-Asp(O-methyl)-fluoromethyl ketone [[^131I]IZ-VAD-fmk]				some increase in uptake

— patent US20090170131A1, “Agents for Imaging Apoptosis” (priority 2006, published 2009)
